Results published in PMC2939296 (Bioorganic & medicinal chemistry letters, 2010).

What was measured:
Human MIF = biological target: T1, Human MIF (Homo sapiens, UniProt P14174); settings: cited from earlier work
T1 sequence (P14174 2-115 limits assumed): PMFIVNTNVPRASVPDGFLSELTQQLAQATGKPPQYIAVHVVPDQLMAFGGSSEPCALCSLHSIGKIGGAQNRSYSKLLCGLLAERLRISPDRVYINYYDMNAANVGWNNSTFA

rh-MIF = biological target: T2, rh-MIF (Homo sapiens, UniProt P14174); assay: Mass spectrometry; settings: 30 μM rh-MIF plus 30 μM compound, 1 hr at room temperature in the dark
T2 sequence (P14174 2-115 limits assumed): T1 sequence (P14174 2-115 limits assumed)

MIF-CD74 = biological target: T3, MIF-CD74 (Homo sapiens, UniProt P14174); settings: cited from earlier work
T3 sequence (P14174 2-115 limits assumed): T1 sequence (P14174 2-115 limits assumed)

Cc1ccc2oc(=O)n(Cc3ccccc3)c2c1 [Cp 1]
mode of inhibition of tautomerase activity (Michaelis-Menten analyses) (Human MIF): competitive inhibitor

Ic1cc(-c2ccccc2)ncn1 [Cp 4-IPP, 4-iodo-6-phenylpyrimidine]
covalent adduct with MIF by mass spectrometry (rh-MIF): appearance of the covalent adduct at the mass of MIF + ca. 155 Da

CC(=O)N=C1C=CC(=O)C=C1 [NAPQI]
effect on MIF receptor binding activity (MIF-CD74): decreases
effect on MIF tautomerase activity (Human MIF): decreases

Cc1ccc2oc(=O)n(Cc3cccc(O)c3)c2c1 [Cp 5]
covalent adduct with MIF by mass spectrometry (rh-MIF): no additional peaks emerged
